Reference: patent US10329310B2, “Arginase inhibitors and their therapeutic applications” (ONCOARENDI THERAPEUTICS S.A., priority 2014, dated 2019)
Counter-ions that a name gives are not always drawn.

Molecular target: recombinant human arginases 1 and 2
Experiment: Human Arginase Activity Assay (urea measurement, colorimetric)
Assay type: biochemical
Conditions: 37° C., 60 min, isoform not given, read-out: Activity Class (IC50)
Description: Human Arginase Activity Assay
The assay was run in the 96-well plate format, each reaction in the total volume of 100 ul. The assay is based on urea measurement, which is a product of L-arginine enzymatic degradation. (Baggio et al. J. Pharmacol. Exp. Ther. 1999, 290, 1409-1416). The color product is developed by adding a mixture of reagent A (10 mM o-phthaldialdehyde and 0.4% polyoxyethylene (23) lauryl ether (w/v) in 1.8 M sulfuric acid) and reagent B (1.3 mM primaquine diphosphate, 0.4% polyoxyethylene (23) lauryl ether (w/v), and 130 mM boric acid in 3.6 M sulfuric acid) in equal proportions. The absorbance for each well was measured at 530 nm and was referred to the concentration curve determined using urea as a standard.
Briefly, to each well of a 96-well microtiter plate 40 μL of enzyme, 50 μL of the test compound solution, and 10 μL of enzyme substrate solution (L-arginine+manganese chloride) was added. For positive control, only the enzyme and substrate was added, the negative controls contained only manganese chloride. After incubating the microtiter plate at 37° C. for 60 min, 150 μL of a urea reagent was added to each well to stop the reaction. After quenching the reaction mixture, the plate was left for 20 min at room temperature in order to allow color development. Absorbance was measured with Envision® Reader (Perkin-Elmer) (λ=530 nm).
The IC50 values were calculated using GraphPad Prism and divided into the following classes: […]

IC50	Structure (SMILES)
10 to 100 µM	NC(=O)NCC(N)(CCCCB(O)O)C(=O)O (stereo not drawn) [Example 3, 2-Amino-6-borono-2-(ureidomethyl)hexanoic acid hydrochloride]
0.1 to 1 µM	CN(C)S(=O)(=O)NCC(N)(CCCCB(O)O)C(=O)O (stereo not drawn) [Example 4, 2-Amino-6-borono-2-(((N,N-dimethylsulfamoyl)amino)methyl)hexanoic acid hydrochloride]
1 to 10 µM	NC(CCCCB(O)O)(CNS(=O)(=O)NCc1ccccc1)C(=O)O (stereo not drawn) [Example 5, hydrochloride]
0.1 to 1 µM	CNS(=O)(=O)NCC(N)(CCCCB(O)O)C(=O)O (stereo not drawn) [Example 6, hydrochloride]
0.1 to 1 µM	CNC(=N)NCC(N)(CCCCB(O)O)C(=O)O (stereo not drawn) [Example 7, 2-Amino-6-borono-2-((3-methylguanidino)methyl)hexanoic acid hydrochloride]
0.1 to 1 µM	CNC(CCCCB(O)O)(CNS(N)(=O)=O)C(=O)O (stereo not drawn) [Example 8, 6-Borono-2-(methylamino)-2-((sulfamoylamino)methyl)hexanoic acid hydrochloride]
0.001 to 0.1 µM	CNC(CCCCB(O)O)(CNC(=N)N)C(=O)O (stereo not drawn) [Example 9, 6-Borono-2-(guanidinomethyl)-2-(methylamino)hexanoic acid dihydrochloride]
1 to 10 µM	NC(CCCCB(O)O)(CCS(N)(=O)=O)C(=O)O (stereo not drawn) [Example 10, 2-Amino-6-borono-2-(2-sulfamoylethyl)hexanoic acid hydrochloride]
1 to 10 µM	NC(CCCCB(O)O)(CCNS(N)(=O)=O)C(=O)O (stereo not drawn) [Example 12, hydrochloride]
1 to 10 µM	NC(CCCCB(O)O)(C(=O)O)C1CCN(S(N)(=O)=O)CC1 (stereo not drawn) [Example 14, 2-Amino-6-borono-2-(1-sulfamoylpiperidin-4-yl)hexanoic acid hydrochloride]
10 to 100 µM	CN(C)S(=O)(=O)N1CCC(C(N)(CCCCB(O)O)C(=O)O)CC1 (stereo not drawn) [Example 15, 2-Amino-6-borono-2-(1-(N,N-dimethylsulfamoyl)piperidin-4-yl)hexanoic acid hydrochloride]
1 to 10 µM	NC(CCCCB(O)O)(C(=O)O)C1CCN(S(=O)(=O)NCc2ccc(C(F)(F)F)cc2)CC1 (stereo not drawn) [Example 16, 2-Amino-6-borono-2-(1-(N-(4-(trifluoromethyl)benzyl)sulfamoyl)piperidin-4-yl)hexanoic acid hydrochloride]
